Source: US9981916B2 (Genentech, Inc., priority 2013, dated 2018)

Molecular target: T1, RORc ligand binding domain (Homo sapiens, UniProt P51449)
T1 construct: host or cells: E. coli
T1 sequence (P51449 269-508 limits assumed): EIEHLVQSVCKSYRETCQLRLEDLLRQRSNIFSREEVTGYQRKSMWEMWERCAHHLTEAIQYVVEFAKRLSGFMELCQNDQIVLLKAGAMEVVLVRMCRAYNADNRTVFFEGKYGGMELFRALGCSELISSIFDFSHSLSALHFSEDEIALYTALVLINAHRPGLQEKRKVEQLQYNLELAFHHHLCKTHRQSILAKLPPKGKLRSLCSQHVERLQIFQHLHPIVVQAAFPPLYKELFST
Assay: In vitro RORc ligand binding assay (25-[3H]hydroxycholesterol displacement, filter binding)
Conditions: 6 nM 25-[3H]hydroxycholesterol, 0.6 ug/mL RORc receptor, 3 h at 25° C.
How it was run: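 Filter-binding displacement of 6 nM 25-[3H]hydroxycholesterol from RORc receptor (0.6 ug/mL) in 50 mM HEPES pH 7.4, 150 mM NaCl, 5 mM MgCl2, 1 mM DTT, 0.01% BSA, 5% DMSO; 3 h at 25° C. NSB defined with 1 uM 25-hydroxycholesterol; scintillation counting gave Kiapp, IC50 or % inhibition (screening at 1 and 10 uM).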

SMILES | IC50
CC1(C)[C@@H]2CC[C@@]1(C(=O)N1CCC3(COC3)C1)c1nnc(-c3c(F)cccc3F)cc12 [Example 218, ((5S,8S)-3-(2,6-difluorophenyl)-9,9-dimethyl-5,6,7,8-tetrahydro-5,8-methanocinnolin-8-yl)(2-oxa-6-azaspiro[3.4]octan-6-yl)methanone] | 2.44 µM
CC1(O)CCN(C(=O)[C@]23CC[C@H](c4cc(-c5c(F)cccc5F)nnc42)C3(C)C)C1 (stereo partly drawn) [Example 219, ((5S,8S)-3-(2,6-difluorophenyl)-9,9-dimethyl-5,6,7,8-tetrahydro-5,8-methanocinnolin-8-yl)(3-hydroxy-3-methylpyrrolidin-1-yl)methanone] | 1.1 µM
C[C@H]1CN(C(=O)[C@]23CC[C@H](c4cc(-c5c(F)cccc5F)nnc42)C3(C)C)C[C@@H]1O [Example 220, ((5S,8S)-3-(2,6-difluorophenyl)-9,9-dimethyl-5,6,7,8-tetrahydro-5,8-methanocinnolin-8-yl)((3R,4S)-3-hydroxy-4-methylpyrrolidin-1-yl)methanone] | 2.94 µM
CC1(C)[C@@H]2CC[C@@]1(C(=O)N1CC3(CCCO3)C1)c1nnc(-c3c(F)cccc3F)cc12 [Example 221, ((5S,8S)-3-(2,6-difluorophenyl)-9,9-dimethyl-5,6,7,8-tetrahydro-5,8-methanocinnolin-8-yl)(5-oxa-2-azaspiro[3.4]octan-2-yl)methanone] | 0.612 µM
CNC(=O)[C@H]1[C@@H]2CN(C(=O)[C@]34CC[C@H](c5cc(-c6c(F)cccc6F)nnc53)C4(C)C)C[C@@H]21 [Example 222, (1R,5S,6S)-3-((5S,8S)-3-(2,6-difluorophenyl)-9,9-dimethyl-5,6,7,8-tetrahydro-5,8-methanocinnoline-8-carbonyl)-N-methyl-3-azabicyclo[3.1.0]hexane-6-carboxamide] | 1.43 µM
CC1(C)[C@@H]2CC[C@@]1(C(=O)N1CCC3CC31)c1nnc(-c3c(F)cccc3F)cc12 (stereo partly drawn) [Example 223, 2-azabicyclo[3.1.0]hexan-2-yl((5S,8S)-3-(2,6-difluorophenyl)-9,9-dimethyl-5,6,7,8-tetrahydro-5,8-methanocinnolin-8-yl)methanone] | 0.196 µM
CC1(C)[C@@H]2CC[C@@]1(C(=O)N1CCCC1C(F)(F)F)c1nnc(-c3c(F)cccc3F)cc12 (stereo partly drawn) [Example 224, ((5S,8S)-3-(2,6-difluorophenyl)-9,9-dimethyl-5,6,7,8-tetrahydro-5,8-methanocinnolin-8-yl)(2-(trifluoromethyl)pyrrolidin-1-yl)methanone] | 0.327 µM
CC(=O)N[C@H]1CCN(C(=O)[C@]23CC[C@H](c4cc(-c5c(F)cccc5F)nnc42)C3(C)C)C1 [Example 225, N-((S)-1-((5S,8S)-3-(2,6-difluorophenyl)-9,9-dimethyl-5,6,7,8-tetrahydro-5,8-methanocinnoline-8-carbonyl)pyrrolidin-3-yl)acetamide] | 2.72 µM
Cn1nc([C@@]23CC[C@@H](c4cc(-c5c(F)cccc5F)nnc42)C3(C)C)oc1=O [Example 226, 5-((5R,8R)-3-(2,6-difluorophenyl)-9,9-dimethyl-5,6,7,8-tetrahydro-5,8-methanocinnolin-8-yl)-3-methyl-1,3,4-oxadiazol-2(3H)-one] | 0.124 µM
Cc1ncoc1[C@]12CC[C@H](c3cc(-c4c(F)cccc4F)nnc31)C2(C)C [Example 227, 5-((5S,8S)-3-(2,6-difluorophenyl)-9,9-dimethyl-5,6,7,8-tetrahydro-5,8-methanocinnolin-8-yl)-4-methyloxazole] | 0.139 µM
Cc1ocnc1[C@]12CC[C@H](c3cc(-c4c(F)cccc4F)nnc31)C2(C)C [Example 228, 4-((5S,8R)-3-(2,6-difluorophenyl)-9,9-dimethyl-5,6,7,8-tetrahydro-5,8-methanocinnolin-8-yl)-5-methyloxazole] | 0.137 µM
Cc1nn(C)/c(=N\[C@@]23CC[C@@H](c4cc(-c5ccccc5F)nnc42)C3(C)C)o1 [Example 229, (5R,8R,E)-N-(3,5-dimethyl-1,3,4-oxadiazol-2(3H)-ylidene)-3-(2-fluorophenyl)-9,9-dimethyl-5,6,7,8-tetrahydro-5,8-methanocinnolin-8-amine] | 1.53 µM
Cc1nnc(N(C)[C@@]23CC[C@@H](c4cc(-c5ccccc5F)nnc42)C3(C)C)o1 [Example 230, N-((5R,8R)-3-(2-fluorophenyl)-9,9-dimethyl-5,6,7,8-tetrahydro-5,8-methanocinnolin-8-yl)-N,5-dimethyl-1,3,4-oxadiazol-2-amine] | 1.82 µM
CC1(C)[C@@H]2CC[C@@]1(C(=O)N1C[C@@H]3C[C@H]1CO3)c1nnc(-c3c(F)cccc3F)cc12 [Example 231, (1S,4S)-2-oxa-5-azabicyclo[2.2.1]heptan-5-yl((5S,8S)-3-(2,6-difluorophenyl)-9,9-dimethyl-5,6,7,8-tetrahydro-5,8-methanocinnolin-8-yl)methanone] | 0.241 µM
CC1(C)[C@@H]2CC[C@@]1(C(=O)N1CC(n3cccn3)C1)c1nnc(-c3c(F)cccc3F)cc12 [Example 232, (3-(1H-pyrazol-1-yl)azetidin-1-yl)((5S,8S)-3-(2,6-difluorophenyl)-9,9-dimethyl-5,6,7,8-tetrahydro-5,8-methanocinnolin-8-yl)methanone] | 0.232 µM
CC1(C)[C@@H]2CC[C@@]1(C(=O)N1CC(CO)C1)c1nnc(-c3c(F)cccc3F)cc12 [Example 233, ((5S,8S)-3-(2,6-difluorophenyl)-9,9-dimethyl-5,6,7,8-tetrahydro-5,8-methanocinnolin-8-yl)(3-(hydroxymethyl)azetidin-1-yl)methanone] | 0.819 µM
C[C@H]1CCCN1C(=O)[C@]12CC[C@H](c3cc(-c4c(F)cccc4F)nnc31)C2(C)C [Example 234, ((5S,8S)-3-(2,6-difluorophenyl)-9,9-dimethyl-5,6,7,8-tetrahydro-5,8-methanocinnolin-8-yl)((S)-2-methylpyrrolidin-1-yl)methanone] | 0.238 µM
CC(C)OC1CN(C(=O)[C@]23CC[C@H](c4cc(-c5c(F)cccc5F)nnc42)C3(C)C)C1 [Example 235, ((5S,8S)-3-(2,6-difluorophenyl)-9,9-dimethyl-5,6,7,8-tetrahydro-5,8-methanocinnolin-8-yl)(3-isopropoxyazetidin-1-yl)methanone] | 0.844 µM
CC1(C)[C@@H]2CC[C@@]1(C(=O)N1CC[C@@H](C#N)C1)c1nnc(-c3c(F)cccc3F)cc12 [Example 236, (R)-1-((5S,8S)-3-(2,6-difluorophenyl)-9,9-dimethyl-5,6,7,8-tetrahydro-5,8-methanocinnoline-8-carbonyl)pyrrolidine-3-carbonitrile] | 0.405 µM
CC1(C)CCN(C(=O)[C@]23CC[C@H](c4cc(-c5c(F)cccc5F)nnc42)C3(C)C)C1 [Example 237, ((5S,8S)-3-(2,6-difluorophenyl)-9,9-dimethyl-5,6,7,8-tetrahydro-5,8-methanocinnolin-8-yl)(3,3-dimethylpyrrolidin-1-yl)methanone] | 0.498 µM
CC1(C)[C@@H]2CC[C@@]1(C(=O)N1CC[C@@H](O)C1)c1nnc(-c3c(F)cccc3F)cc12 [Example 238, ((5S,8S)-3-(2,6-difluorophenyl)-9,9-dimethyl-5,6,7,8-tetrahydro-5,8-methanocinnolin-8-yl)((R)-3-hydroxypyrrolidin-1-yl)methanone] | 0.236 µM
CN1C[C@@H]2C[C@H]1CN2C(=O)[C@]12CC[C@H](c3cc(-c4c(F)cccc4F)nnc31)C2(C)C [Example 239, ((5S,8S)-3-(2,6-difluorophenyl)-9,9-dimethyl-5,6,7,8-tetrahydro-5,8-methanocinnolin-8-yl)((1S,4S)-5-methyl-2,5-diazabicyclo[2.2.1]heptan-2-yl)methanone] | 0.892 µM
CC1(C)[C@@H]2CC[C@@]1(C(=O)N1CC3(CCC3)C1)c1nnc(-c3c(F)cccc3F)cc12 [Example 240, ((5S,8S)-3-(2,6-difluorophenyl)-9,9-dimethyl-5,6,7,8-tetrahydro-5,8-methanocinnolin-8-yl)(2-azaspiro[3.3]heptan-2-yl)methanone] | 0.217 µM
CC1(C)[C@@H]2CC[C@@]1(C(=O)N1C[C@@H]3C[C@H]1CN3S(C)(=O)=O)c1nnc(-c3c(F)cccc3F)cc12 [Example 241, ((5S,8S)-3-(2,6-difluorophenyl)-9,9-dimethyl-5,6,7,8-tetrahydro-5,8-methanocinnolin-8-yl)((1S,4S)-5-(methylsulfonyl)-2,5-diazabicyclo[2.2.1]heptan-2-yl)methanone] | 0.327 µM
CN(C)[C@@H]1CCN(C(=O)[C@]23CC[C@H](c4cc(-c5c(F)cccc5F)nnc42)C3(C)C)C1 [Example 242, ((5S,8S)-3-(2,6-difluorophenyl)-9,9-dimethyl-5,6,7,8-tetrahydro-5,8-methanocinnolin-8-yl) ((R)-3-(dimethylamino)pyrrolidin-1-yl)methanone] | 0.707 µM
CNC(=O)C1CCCN1C(=O)[C@]12CC[C@H](c3cc(-c4c(F)cccc4F)nnc31)C2(C)C (stereo partly drawn) [Example 243, 1-((5S,8S)-3-(2,6-difluorophenyl)-9,9-dimethyl-5,6,7,8-tetrahydro-5,8-methanocinnoline-8-carbonyl)-N-methylpyrrolidine-2-carboxamide] | 2.95 µM
CNC(=O)C1CCN(C(=O)[C@]23CC[C@H](c4cc(-c5c(F)cccc5F)nnc42)C3(C)C)C1 (stereo partly drawn) [Example 244, 1-((5S,8S)-3-(2,6-difluorophenyl)-9,9-dimethyl-5,6,7,8-tetrahydro-5,8-methanocinnoline-8-carbonyl)-N-methylpyrrolidine-3-carboxamide] | 0.904 µM
